These results are taken from patent US4780412A, “Fibrinolytic enzymes produced from established non-cancerous cell lines” (priority 1982, dated 1988).

For orientation: Km means the concentration of substrate that gives half-maximal velocity.

Structures are written as SMILES. Counter-ions that a name gives are not always drawn. Square brackets hold non-standard residues; d marks the D form. Peptide text beside a SMILES is read from it. * marks the point of attachment. pNA = O=[N+]([O-])c1ccc(N*)cc1; Bz = O=C(c1ccccc1)*

The subject of one test is Thrombin. The note with it: values quoted in literature; cited from earlier work.
Another test has as its target Urokinase (Homo sapiens, UniProt P00749). The settings on record: values quoted in literature; cited from earlier work.
Another test concerns Plasmin. The note with it: values quoted in literature; cited from earlier work.
In test [1] the target is T1, GPK derived enzyme, partially purified (fibrinolytic enzyme / plasminogen activator from cell line GPK, CNCMI-222) (Cavia porcellus, UniProt H0W0Z7).
T1 construct: zinc chelate agarose, partially purified from culture supernatant
T1 sequence (H0W0Z7 33-559): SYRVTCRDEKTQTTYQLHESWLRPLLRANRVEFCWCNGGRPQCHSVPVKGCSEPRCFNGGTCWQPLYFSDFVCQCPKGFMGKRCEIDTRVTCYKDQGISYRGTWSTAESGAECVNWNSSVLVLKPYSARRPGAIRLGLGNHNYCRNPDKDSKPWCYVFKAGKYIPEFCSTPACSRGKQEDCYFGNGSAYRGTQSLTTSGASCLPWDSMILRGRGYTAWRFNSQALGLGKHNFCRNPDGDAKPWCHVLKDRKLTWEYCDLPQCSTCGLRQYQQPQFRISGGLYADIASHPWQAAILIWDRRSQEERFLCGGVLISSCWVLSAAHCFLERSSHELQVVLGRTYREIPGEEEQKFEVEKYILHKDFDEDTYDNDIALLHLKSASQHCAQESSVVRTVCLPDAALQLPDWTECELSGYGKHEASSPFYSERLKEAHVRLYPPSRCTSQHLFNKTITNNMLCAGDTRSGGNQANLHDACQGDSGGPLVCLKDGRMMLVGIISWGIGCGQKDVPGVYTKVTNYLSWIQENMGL
The test can be described thus: Amidolytic activity on chromogenic substrates (release of p-nitroaniline at 405 nm). The test is classed as biochemical. The protocol:
The amidolytic activity of the GPK derived enzyme was determined using various chromogenic substrates. […] Z

Test [2] addresses Melanoma (malignant melanoma plasminogen activator, HEPA) (Homo sapiens, UniProt P00750). The settings on record: values quoted in literature; cited from earlier work.
The target in test [3] is T2, GPK derived enzyme (from cell line GPK, CNCMI-222) (Cavia porcellus, UniProt H0W0Z7).
T2 construct: residual activity on plasminogen-containing fibrin plate
T2 sequence (H0W0Z7 33-559): as above
Briefly: Inhibition of GPK-derived enzyme activity by 2-mercaptoethanol (fibrin plate, fibrin clot lysis time). The test is classed as biochemical. The note with it: 2-mercaptoethanol at 10 mM or above, incubated 15 min at 37° C., pH 7.8; residual activity on plasminogen containing fibrin plate and by clot lysis time. The protocol: Various dilutions of the stock solution of 2-mercaptoethanol were prepared in 0.05M sodium diethylbarbiturate buffer, pH 7.8 containing 0.01% Tween 80. GPK derived enzyme (25 μg/ml) was mixed with an equal volume of diluted 2-mercaptoethanol solution and the mixture incubated at 37° C. Control sample contained enzyme with an equal volume of buffer. After 15 min, 50 μl aliquot of the mixture was applied to plasminogen containing fibrin plate to assess the residual enzyme activity. The enzyme activity was also quantitated by fibrin clot lysis time method.

Sequence of Melanoma (malignant melanoma plasminogen activator, HEPA) (P00750 36-562): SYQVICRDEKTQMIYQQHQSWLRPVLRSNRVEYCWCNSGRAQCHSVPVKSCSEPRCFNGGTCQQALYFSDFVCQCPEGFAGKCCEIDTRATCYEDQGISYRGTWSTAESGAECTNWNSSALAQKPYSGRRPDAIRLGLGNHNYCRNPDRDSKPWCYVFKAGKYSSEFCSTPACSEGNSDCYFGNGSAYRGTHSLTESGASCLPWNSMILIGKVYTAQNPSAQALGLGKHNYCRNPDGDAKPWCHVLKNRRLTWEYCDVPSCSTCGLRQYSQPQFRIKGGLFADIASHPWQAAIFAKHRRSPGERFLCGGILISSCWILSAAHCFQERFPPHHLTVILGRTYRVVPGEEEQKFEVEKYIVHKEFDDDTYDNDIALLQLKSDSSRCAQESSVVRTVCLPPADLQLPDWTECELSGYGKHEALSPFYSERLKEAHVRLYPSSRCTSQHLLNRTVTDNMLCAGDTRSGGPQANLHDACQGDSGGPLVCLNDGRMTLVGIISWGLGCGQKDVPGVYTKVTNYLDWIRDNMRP

Consider `CC(C)[C@H](NC(=O)[C@H](Cc1ccccc1)NC(=O)c1ccccc1)C(=O)N[C@@H](CCCNC(=N)N)C(=O)Nc1ccc([N+](=O)[O-])cc1` [Benzoyl-Phe--Val--Arg--pNa.HCl] (Bz-Phe-Val-Arg-pNA), for which, in the test with Thrombin, the Km is 110 µM and the Vmax was 0.036 M/min/NIH.U.
Take `CC[C@@H](C)[C@@H](N)C(=O)N1CCC[C@H]1C(=O)N[C@@H](CCCNC(=N)N)C(=O)Nc1ccc([N+](=O)[O-])cc1` [H--D--Ile--Pro--Arg--pNA.2HCl] (H-[dI]-Pro-Arg-pNA): the values for the Km on Urokinase, in the test with Plasmin and in the test on Thrombin were 200 µM, 9000 µM and 3 µM, respectively. The Vmax was 2 × 10^-4 M/min/U at Urokinase, 5 m/min/U in the test on Plasmin and 0.1 M/min/U with Thrombin.
On to `CC(C)C[C@H](NC(=O)[C@H](N)C(C)C)C(=O)N[C@@H](CCCCN)C(=O)Nc1ccc([N+](=O)[O-])cc1` [H--D--Val--Leu--Lys--pNA.2HCl] (H-[dV]-Leu-Lys-pNA), for which the Vmax in test [1] (pH 7.4, ionic strength I 0.006, 0.05M Tris-HCl, 37° C.) is 27 M/min/M enzyme; in test [1] (pH 7.4, ionic strength I 0.15, 0.05M Tris-HCl, 37° C.), 14.7 M/min/M enzyme; in test [1] (pH 9.0, ionic strength I 0.15, 0.05M Tris-HCl, 37° C.) it was 4.08 M/min/M enzyme; in the test with Plasmin, 0.5 M/min/CU. Besides, the Km in the test with Plasmin was 300 µM.
Consider `CC(C)[C@H](NC(=O)c1ccccc1)C(=O)NCC(=O)N[C@@H](CCCNC(=N)N)C(=O)Nc1ccc([N+](=O)[O-])cc1` [Benzoyl-Val--Gly--Arg--pNA.HCl] (Bz-Val-Gly-Arg-pNA), for which the Vmax in test [1] (pH 9.0 (line above), ionic strength I 0.0035, substrate concentration by extinction) was 1.4 M/min/M enzyme; in test [1] (pH 9.0, ionic strength I 0.05, 0.05M Tris-HCl, 37° C.), 1.1 M/min/M enzyme; in test [2], 0.53 M/min/IU. Besides, the Km in test [2] was 1000 µM.
Take `N=C(N)NCCC[C@H](NC(=O)[C@H](CCC(=O)O)NC(=O)[C@@H](N)CCC(=O)O)C(=O)Nc1ccc([N+](=O)[O-])cc1` [Glu--Glu--Arg--pNA.HCl] (H-Glu-Glu-Arg-pNA): on Urokinase, the Michaelis constant (Km) was 90 µM and the Vmax was 3.1 × 10^-4 M/min/PLOUG.U.
On to `OCCS` [2-mercaptoethanol], for which the “proportion of the enzyme activity inhibited” value in test [3] was above 80%.
